Measurements reported in patent publication US10807951B2, “mTORC1 modulators” (THE REGENTS OF THE UNIVERSITY OF CALIFORNIA, priority 2017, dated 2020).

Key:
[1] = target: T1, LAMTOR5 (Homo sapiens, UniProt O43504); assay: Gel-based ABPP against IA-alkyne labeling of pure LAMTOR5 protein; type: binding
Text: FIGS. 9A-9C. Potency and selectivity of YP 1-44 analogs. (FIG. 9A) initial YP 1-44 analogs and their relative potency against IA-alkyne labeling of pure human LAMTOR5 protein visualized by gel-based ABPP (a). Protein expression levels were also ascertained by silver staining (b). (FIG. 9B) Gel-based ABPP IA-alkyne cysteine-reactivity analysis of YP 1-44 analogs against Rag-Ragulator complex proteins (a). Protein expression levels were also ascertained by silver staining (b). (FIG. 9C) Hela whole cell proteome gel-based ABPP analysis of IA-alkyne cysteine-reactivity with YP 1-44 analogs (a). Protein expression levels were also ascertained by silver staining (b).
Thus, we performed medicinal chemistry to optimize the potency and selectivity of our initial hits by addition of further bulk to the core YP 1-44 scaffold (FIGS. 9A-9C; FIG. 5B). We initially screened these compounds against both LAMTOR5 and the Ragulator complex using gel-based ABPP methods competing the binding of these YP 1-44 analogs against IA-alkyne labeling of these proteins (FIG. 5C, FIG. 9). We also tested these compounds against Hela cell whole proteome cysteine reactivity to get initial read-outs of proteome-wide selectivity (FIGS. 9A-9C, FIG. 5D).

[2] = tested on: autophagy; assay: Autophagy induction in tissues of injected mice; type: in vivo; conditions: 100 mg/kg vs rapamycin 10 mg/kg, heart, skeletal muscle, kidney
[3] = tested on: mTORC1; assay: mTORC1 signaling in tissues of injected mice; conditions: injection 100 mg/kg, heart, skeletal muscle, kidney
[4] = target: T1, LAMTOR5; assay: Rhodamine labeling with alkyne probe on purified Lamtor-Rag complexes; type: binding; conditions: excess unlabeled compound
Text: (§1) FIGS. 8A-8B. (FIG. 8A) Structures of CC 2-11 and CC 1-44. CC 2-11 bears an alkyne group on a separate ring from the cysteine-reactive warhead. The presence of the alkyne group enables us to directly label the modified target protein (e.g. Lamtor5) with biotin or rhodamine groups, either in gels or in complex proteomes. […] Thus, CC 2-11 allows precise mapping of the target cysteines as well as accurate identification of the off-targets.
as §1, with “We also synthesized a” for “FIGS. 8A-8B. (FIG. 8A) Structures of”, “1-44 derivative, named” for “2-11 and”, “2-11, which” for “1-44. CC 2-11”, “warhead (FIG. 8A).” for “warhead.”, “will allow” for “allows”

[5] = tested on: mTOR localization to LAMP2-positive lysosomes; assay: mTORC1 recruitment assay, immunofluorescence in HeLa cells; type: cell-based; conditions: 50 μM, 1 h, amino acid stimulation
Procedure: Next, we sought to determine whether YP 1-44 had expected cellular effects in disrupting the TORC1 complex, recruitment of TORC1 to the lysosome, and TORC1 signaling. We treated Hela cells with YP 1-44 for 1 h with and without amino acid stimulation. […] This finding is consistent with the role of Lamtor as an obligate scaffold not only for mTORC1 but also for the Rag GTPases at the lysosome. […] Thus, our results establish that YP 1-44 abolishes mTORC1 signaling both in vitro and in live cells by preventing mTORC1 localization to the lysosome, and that this action occurs via disruption of the Lamtor-Rag scaffold.
HeLa cells were plated on fibronectin-coated glass coverslips in 6-well plates (35 mm diameter/well), at 300,000-500,000 cells/well. 12-16 hours later, cells were subjected to amino acid depletion for 1 h in the presence of 50 uM compounds or an equivalent volume of DMSO, restimulated with a complete amino acid mix for 10 minutes, and fixed in 4% paraformaldehyde (in PBS) for 15 min at RT. The coverslips were rinsed twice with PBS and cells were permeabilized with 0.1% (w/v) Saponin in PBS for 10 min. […]

SMILES	potency against IA-alkyne labeling of LAMTOR5 [1]	autophagy induction compared to rapamycin [2]	autophagy induction compared to rapamycin ([2]; listed as C 1-44)	mTORC1 signaling as assessed by phospho-S6 and 4EBP1 [3]	competition of CC 2-11 rhodamine labeling signal [4]	amino acid-induced mTOR localization to LAMP2-positive lysosomes [5]	amino acid-induced mTOR localization to LAMP2-positive lysosomes ([5]; listed as YP1-44)
C=CC(=O)N1CCc2c(OCc3cc(C(F)(F)F)cc(C(F)(F)F)c3)cccc21 [CC 1-44]	desirable potency	superior potency to rapamycin	much stronger autophagy induction as compared to rapamycin	dramatic inhibition of mTORC1 signaling	competes		
C=CC(=O)n1ccc2ccccc21 [YP 1-44]						disrupts amino acid-induced mTOR localization	mTORC1 recruitment fails
